Measured values as given in US6355657B1, “System for percutaneous delivery of opioid analgesics” (Atrix Laboratories, Inc., priority 1998, dated 2002).
Values joined by “and” are separate entries in the source; they are usually repeats but may differ in a detail not shown here. Equal entries are not always repeated. Structures can show the parent of a compound that is named as a salt. Where two headings read alike, the source gives them in different places.

What was measured:
[1] = cited from earlier work
[2] = Solubility of loperamide hydrochloride in the receptor solution (spiked receptor solutions); format: physicochemical; settings: 10% (v/v) N-methyl-2-pyrrolidone in water
Description: The receptor solution was 10% (v/v) N-methyl-2-pyrrolidone in water.

[3] = Solubility of loperamide hydrochloride in solvents and solvent mixtures (titration to cloud point, HPLC of saturated solutions); format: physicochemical
Experimental: The solubility studies of loperamide hydrochloride were initiated using the formulation systems shown in Table I through multiple titrations confirmned by HPLC analysis of saturated solutions. For systems having at least 5% loperamide hydrochloride solubility, the transport of loperamide hydrochloride across the skin was characterized by 500 μL and 20 μL dosing of excised human cadaver skin using a Franz in vitro skin diffusion cell.
Solvent systems were mixed according to weight. For combinations of solvents that were single phase, loperamide hydrochloride was added in 0.1% increments until the system clouded. This was taken as the approximate saturation value for loperamide hydrochloride in that system. The system was then allowed to remain undisturbed for at least 24 hours. Often large crystals of loperamide hydrochloride would form upon standing. This solution was then filtered, appropriately diluted and assayed according to the HPLC method described below.

CN(C)C(=O)C(CCN1CCC(O)(c2ccc(Cl)cc2)CC1)(c1ccccc1)c1ccccc1 [loperamide hydrochloride, 4-(p-chlorophenyl)-4-hydroxy-N,N-dimethyl-α,(α-diphenyl-1-piperidinebutyramide hydrochloride]
solubility ([1]; 2-butanone): 0.18 grams per 100 mL solvent
solubility ([1]; 2-propanol): 1.11 grams per 100 mL solvent
solubility ([1]; 4-methyl-2-pentanone): 0.020 grams per 100 mL solvent
solubility ([1]; N,N-dimethylformamide): 10.3 grams per 100 mL solvent
solubility ([1]; acetone): 0.20 grams per 100 mL solvent
solubility ([1]; citrate-phosphate buffer (pH 6.1)): 0.008 grams per 100 mL solvent
solubility ([1]; citrate-phosphate buffer (pH 7.9)): less than 0.001 grams per 100 mL solvent
solubility ([1]; dichloromethane): 35.1 grams per 100 mL solvent
solubility ([1]; diethyl ether): less than 0.001 grams per 100 mL solvent
solubility ([1]; dimethylsulfoxide): 20.5 grams per 100 mL solvent
solubility ([1]; ethanol): 5.37 grams per 100 mL solvent
solubility ([1]; ethyl acetate): 0.035 grams per 100 mL solvent
solubility ([1]; hexane): less than 0.001 grams per 100 mL solvent
solubility ([1]; methanol): 28.6 grams per 100 mL solvent
solubility ([1]; polyethylene glycol 400): 1.40 grams per 100 mL solvent
solubility ([1]; propylene glycol): 5.64 grams per 100 mL solvent
solubility ([1]; tetrahydrofuran): 0.32 grams per 100 mL solvent
solubility ([1]; toluene): 0.001 grams per 100 mL solvent
solubility ([1]; water (at physiological pH)): 0.002 grams per 100 mL solvent
solubility ([1]; water (pH 1.7)): 0.14 grams per 100 mL solvent
solubility of loperamide hydrochloride in receptor solution [2]: greater than 380 ppm
loperamide hydrochloride solubility ([3]; 1:1:1 propylene glycol:ethanol:ethyl acetate): greater than 5 % (w/w)
loperamide hydrochloride solubility ([3]; 1:1:4:3 N-methyl-2-pyrrolidone:propylene glycol:alcohol:water): greater than 6 % (w/w)
loperamide hydrochloride solubility ([3]; 1:1:4:5 N-methyl-2-pyrrolidone:ethyl acetate:ethanol:water): greater than 5 % (w/w)
loperamide hydrochloride solubility ([3]; 10% (v/v) water, 18% (v/v) N-methyl-2-pyrrolidone and 72% (v/v) ethanol ternary blend (FIG. 4)): 19 % (w/w)
loperamide hydrochloride solubility ([3]; 60/40 propylene glycol/ethyl acetate solvent blend (FIG. 2)): 18 % (w/w)
loperamide hydrochloride solubility ([3]; combination of propylene carbonate and ethanol, ratio not stated (FIG. 1)): exceeded 20 % (w/w)
loperamide hydrochloride in solution ([3]; formulations of mixtures of water, alcohols and organic solvents, ambient temperatures): up to 30 % (w/w)
loperamide hydrochloride solubility ([3]; most non-aqueous organic solvents (exceptions NMP, propylene glycol, ethanol)): less than 1 % (w/w)
Loperamide hydrochloride Solubility (w/w) ([3]; solvent Ethanol, hydrochloride): 10 % (w/w)
Loperamide hydrochloride Solubility (w/w) ([3]; solvent Isopropyl Myristate): 0.001% (w/w)
Loperamide hydrochloride Solubility (w/w) ([3]; solvent N-methyl-2-pyrrolidone, hydrochloride): 16 % (w/w)
Loperamide hydrochloride Solubility (w/w) ([3]; solvent Propylene Glycol, hydrochloride): 9 % (w/w) and 8 % (w/w)
loperamide hydrochloride solubility ([3]; the solvents of Table 1 except N-methyl-2-pyrrolidone, ethanol and propylene glycol): ≤ 0.5 % (w/w)
